Source: patent US12351574B2, “Selective ligands for modulation of GIRK channels” (Northeastern University, priority 2018, dated 2025)

Tests used:
GIRK1/4 = molecular target: T1, GIRK1/4 (Homo sapiens, UniProt P48544+P48549); experiment: two-electrode voltage clamp (TEVC) in Xenopus oocytes expressing GIRK1/4 wild-type; format: cell-based; set-up: expressed in transfected cells; host or cells: Xenopus laevis oocytes (cRNA injection)
T1 sequence (P48549 1-501): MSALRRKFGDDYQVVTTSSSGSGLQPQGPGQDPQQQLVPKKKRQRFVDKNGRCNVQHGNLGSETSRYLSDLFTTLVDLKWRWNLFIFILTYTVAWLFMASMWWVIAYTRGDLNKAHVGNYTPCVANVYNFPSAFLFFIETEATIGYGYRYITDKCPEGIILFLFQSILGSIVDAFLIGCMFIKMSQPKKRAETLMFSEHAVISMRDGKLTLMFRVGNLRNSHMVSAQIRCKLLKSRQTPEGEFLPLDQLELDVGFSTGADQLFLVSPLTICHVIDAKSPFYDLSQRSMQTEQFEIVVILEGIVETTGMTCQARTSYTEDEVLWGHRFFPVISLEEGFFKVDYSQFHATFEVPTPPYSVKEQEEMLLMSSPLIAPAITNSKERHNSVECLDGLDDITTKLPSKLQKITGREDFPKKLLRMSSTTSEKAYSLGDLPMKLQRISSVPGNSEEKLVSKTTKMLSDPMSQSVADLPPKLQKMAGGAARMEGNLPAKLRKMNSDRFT
T1 sequence (P48544 1-419): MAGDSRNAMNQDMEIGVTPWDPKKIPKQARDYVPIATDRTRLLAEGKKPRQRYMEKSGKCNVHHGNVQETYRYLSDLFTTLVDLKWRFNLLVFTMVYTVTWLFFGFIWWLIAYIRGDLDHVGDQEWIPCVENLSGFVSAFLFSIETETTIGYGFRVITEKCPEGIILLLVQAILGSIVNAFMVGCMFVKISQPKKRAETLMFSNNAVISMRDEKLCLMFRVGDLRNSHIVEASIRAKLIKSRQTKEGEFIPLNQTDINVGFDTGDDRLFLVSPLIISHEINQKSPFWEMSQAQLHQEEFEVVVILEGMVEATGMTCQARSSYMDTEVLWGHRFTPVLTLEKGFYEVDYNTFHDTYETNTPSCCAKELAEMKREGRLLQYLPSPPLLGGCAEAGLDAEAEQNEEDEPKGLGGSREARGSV
From the text: Molecular biology: For Xenopus oocyte expression, human GIRK1 and human GIRK4 cDNAs were subcloned into pGEMHE. For mammalian expression, human GIRK1 and human GIRK4 cDNAs were subcloned into pcDNA3 and pcDNA3.1/V5-His B, respectively (Invitrogen). Mouse GIRK2 cDNA was subcloned in the dual-function vector, pXoom. Point mutations were introduced using a standard Pfu-based mutagenesis technique according to the QuikChange protocol (Agilent). Mutations were verified by sequencing.
Xenopus laevis oocyte expression: Plasmid DNAs of GIRK channel subunits were linearized prior to in vitro transcription. Capped RNAs were transcribed using mMESSAGE mMACHINE T7 Transcription Kit (Thermo Fisher Scientific). Xenopus oocytes were surgically extracted, dissociated and defolliculated by collagenase treatment, and microinjected with 50 nl of a water solution containing 1 ng of each GIRK subunit RNA. For TEVC experiments, oocytes were kept 2 days at 17° C. before recording, while for NPo experiments oocytes were incubated for up to 4 days at 17° C.
Xenopus laevis oocyte expression: All cDNA constructs in the pGEMHE vector were linearized using the NheI restriction enzyme, whereas those in the pXoom vector were linearized using the XhoI restriction enzyme. Linearized cDNAs were in vitro-transcribed using the mMessage mMachine® kit (Ambion) kit. Complementary RNA (cRNA) concentrations were quantified by optical density. Xenopus oocytes were surgically extracted, dissociated, and defolliculated by collagenase treatment and microinjected with 50 nl of the desired cRNAs diluted in RNAase-free water. The use of Xenopus laevis frogs for this study was approved by the Institutional Animal Care and Use Committee (IACUC) at Northeastern University. All constructs used in this study were injected to achieve between 1-2 ng per oocyte depending on the channel. Oocytes were incubated for 2 days at 18° C.
Electrophysiology of oocytes: Whole-oocyte currents were measured by conventional two-electrode voltage clamp (TEVC) with a GeneClamp 500 amplifier (Axon Instruments). […] Barium-sensitive currents were normalized to average basal current in the vehicle solutions. The HK solution contained the following: 96 mM KCl, 1 mM NaCl, 1 mM MgCl2, 5 mM KOH/HEPES, pH 7.4. The barium solution consisted of HK+10 mM BaCl2. Five to ten oocytes from the same batch (same frog) were recorded for each group, and the experiments were repeated in at least four batches. Data acquisition and analysis were carried out using pClamp9 (Molecular Devices) and OriginPro (Microcal) software.

GIRK1/2 = molecular target: T2, GIRK1/2 (UniProt P48542+P48549); experiment: thallium flux assay, cells expressing GIRK1/2; format: cell-based; set-up: expressed in transfected cells
T2 sequence (P48549 1-501): T1 sequence (P48549 1-501)
T2 sequence (P48542 1-425): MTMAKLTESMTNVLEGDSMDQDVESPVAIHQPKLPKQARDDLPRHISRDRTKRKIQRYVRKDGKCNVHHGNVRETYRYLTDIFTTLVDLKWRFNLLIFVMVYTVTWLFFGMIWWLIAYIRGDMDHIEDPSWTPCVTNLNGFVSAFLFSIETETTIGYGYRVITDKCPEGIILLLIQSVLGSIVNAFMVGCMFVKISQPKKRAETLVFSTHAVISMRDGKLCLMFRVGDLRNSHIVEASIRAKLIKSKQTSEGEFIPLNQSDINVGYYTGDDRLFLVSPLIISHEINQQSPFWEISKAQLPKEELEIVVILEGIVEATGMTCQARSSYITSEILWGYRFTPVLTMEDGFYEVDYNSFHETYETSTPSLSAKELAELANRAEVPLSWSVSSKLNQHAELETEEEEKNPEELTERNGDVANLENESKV
From the text: Previous studies have utilized the thallium flux Assay to test the effects of ML297 and related compounds in cells coexpressing GIRK1/2 and GIRK1/4. In order to fully investigate the selective activation of GAT compounds, the inventors also utilized this assay. […] To determine the differences between the thallium flux and TEVC assays, the inventors computationally tested whether the binding of selective compounds could affect the selectivity of the pore area. The Cα RMSF of the region between the M1 and M2 helices of the channel were calculated during the MD simulation with or without ML297 and the selective GAT compounds in the GIRK2/2^FD and GIRK4/4^FD systems (FIGS. 60A-60B). […] To further test this idea, the inventors compared the 10 μM GAT1508-induced thallium and potassium currents in oocytes expressing GIRK1/2 and GIRK1/4 by TEVC recording (FIG. 61B). […] In an effort to enhance the current, the TEVC recording was performed at a holding potential of −100 mV.

Row | GAT1508-induced potassium current, GIRK1/4 (in words) (GIRK1/4; 10 μM, 10 mM K+, holding potential −100 mV) | GAT1508-induced thallium current, GIRK1/4 (in words) (GIRK1/4; 10 μM, 10 mM thallium, holding potential −100 mV) | EC50 (GIRK1/2) | compound-induced current normalized to the basal current, GIRK1+GIRK4 (GIRK1/4; 10 μM, High Potassium (HK) solution, FIG. 31) | EMAX at GIRK1/4, % relative to ML297 (GIRK1/4; ML297 considered 100%) | EC50 (GIRK1/4; TEVC, Xenopus oocytes, GIRK1/4 wild-type) | EMAX at GIRK1/4 (GIRK1/4; current normalized to basal current) | SMILES
1 | not | induced current increases | – | – | – | – | – | Cc1cc(NC(=O)Nc2ccc(Br)s2)n(-c2ccccc2)n1 [GAT1508, 1-(5-bromothiophen-2-yl)-3-(3-methyl-1-phenyl-1H-pyrazol-5-yl)urea]
2 | – | – | ~689 nM | ~1.75 | 100% | 500 ± 260 nM | 1.60±0.07 | Cc1cc(NC(=O)Nc2ccc(F)c(F)c2)n(-c2ccccc2)n1 [ML297, reference compound]
